# Laboratory results taken from patent US6875451B2, “Compositions and methods for the treatment of primary and metastatic neoplastic diseases using arsenic compounds” (PolaRx Biopharmaceuticals Inc., priority 1997, dated 2005).
# Key:
# Type in all cases: cell-based
# U251 = experiment: SRB growth assay, 2 days exposure, CNS cancer
# Protocol: (§1) Arsenic trioxide (1 mg/ml, 10 mg/ampoule, manufactured by Taylor Pharmaceuticals, Decatur, Ill.) was tested at five concentrations each at 10-fold dilutions, i.e., 10^−5, 10^−6, 10^−7, 10^−8 and 10^−9 μg/ml.
# (§2) The in vitro tests were performed by incubating the test cells in the presence of the indicated concentration of arsenic trioxide under standard culture conditions for a designated period of time, which is followed by a sulforhodamine B (SRB) protein assay to estimate cell viability or growth. The cell lines are organized into subpanels according to the origin of the cell lines, e.g., leukemia, breast cancer, etc. A description of the cell lines and method of testing is described in Monk et al. (1997, Anticancer Drug Des. 12:533-41) and Weinstein et al., (1997, Science 275:343-9), which are incorporated herein in their entirety.
# (§3) The measurement of an effect is expressed in Percentage Growth (PG). The measured effect of the compound on a cell line is calculated according to one or the other of the following two expressions: If (Mean ODtest−Mean ODzero)≧0. then PG=100×(Mean ODtest−Mean ODzero)/(Mean ODctrl−Mean ODzero) If (Mean ODtest−Mean ODzero)<0. then PG=100×(Mean ODtest−Mean ODzero)/(Mean ODzero where: • Mean ODzero=the average of optical density measurements of SRB-derived color just before exposure of cells to the test compounds; • Mean ODtest=the average of optical density measurements of SRB-derived color after exposure of cells to the test compound for a designated period of time; and • Mean ODctrl=the average of optical density measurements of SRB-derived color after with no exposure of cells to the test compound for a designated period of time
# (§4) The first two columns describe the subpanel (e.g., leukemia) and cell line (e.g., CCRF-CEM) involved. The next two columns list the Mean ODzero and Mean ODctrl; the next five columns list the Mean ODtest for each of five different concentrations. Each concentration is expressed as the log10 (molar or μg/ml). The next five columns list the calculated PGs for each concentration. The response parameters GI50, TGI and LC50 are interpolated values representing the concentrations at which the PG is +50, 0, and −50, respectively. Sometimes these response parameters cannot be obtained by interpolation. If, for instance, all of the PGs in a given row exceed +50, then none of the three parameters can be obtained by interpolation. In such a case, the value given for each response parameter is the highest concentration tested and is preceded by a “>” sign. This practice is extended similarly to the other possible situations where a response parameter cannot be obtained by interpolation.
# (§5) In the first set, the cells from 56 different cancer cell lines were exposed to five concentrations of arsenic trioxide continuously for two days prior to performing the SRB assay. In the second set, the cells from 50 different cell lines (a subset of the first 56 cell lines, plus the renal cancer cell line 786-0) were exposed continuously for six days prior to the SRB assay.
# SF-268 = experiment: SRB growth assay, 2 days exposure, CNS cancer
# Protocol: as §1, §2, §3, §4, §5
# SF-539 = experiment: SRB growth assay, 2 days exposure, CNS cancer
# Protocol: as §1, §2, §3, §4, §5
# LOX IMVI = experiment: SRB growth assay, 2 days exposure, melanoma
# Protocol: as §1, §2, §3, §4, §5
# M14 = experiment: SRB growth assay, 2 days exposure, melanoma
# Protocol: as §1, §2, §3, §4, §5
# UACC-257 = experiment: SRB growth assay, 2 days exposure, melanoma
# Protocol: as §1, §2, §3, §4, §5
# SK-MEL-28 = experiment: SRB growth assay, 2 days exposure, melanoma
# Protocol: as §1, §2, §3, §4, §5
# SK-MEL-2 = experiment: SRB growth assay, 2 days exposure, melanoma
# Protocol: as §1, §2, §3, §4, §5
# UACC-62 = experiment: SRB growth assay, 2 days exposure, melanoma
# Protocol: as §1, §2, §3, §4, §5
# MALME-3M = experiment: SRB growth assay, 2 days exposure, melanoma
# Protocol: as §1, §2, §3, §4, §5
# SK-MEL-5 = experiment: SRB growth assay, 2 days exposure, melanoma
# Protocol: as §1, §2, §3, §4, §5
substance,measurement,setting,value
arsenic trioxide,TGI,U251,0.00437 ng/mL
same,Percent Growth,U251; log10 conc −4.9,−68%
same,Percent Growth,U251; log10 conc −5.9,80%
same,Percent Growth,U251; log10 conc −6.9,101%
same,Percent Growth,U251; log10 conc −7.9,99%
same,Percent Growth,U251; log10 conc −8.9,98%
same,TGI,SF-268,>0.0126 ng/mL
same,Percent Growth,SF-268; log10 conc −4.9,23%
same,Percent Growth,SF-268; log10 conc −5.9,100%
same,Percent Growth,SF-268; log10 conc −6.9,108%
same,Percent Growth,SF-268; log10 conc −7.9,94%
same,Percent Growth,SF-268; log10 conc −8.9,110%
same,TGI,SF-539,0.00885 ng/mL
same,Percent Growth,SF-539; log10 conc −4.9,−17%
same,Percent Growth,SF-539; log10 conc −5.9,92%
same,Percent Growth,SF-539; log10 conc −6.9,113%
same,Percent Growth,SF-539; log10 conc −7.9,117%
same,Percent Growth,SF-539; log10 conc −8.9,109%
same,TGI,LOX IMVI,>0.0126 ng/mL
same,Percent Growth,LOX IMVI; log10 conc −4.9,13%
same,Percent Growth,LOX IMVI; log10 conc −5.9,73%
same,Percent Growth,LOX IMVI; log10 conc −6.9,71%
same,Percent Growth,LOX IMVI; log10 conc −7.9,88%
same,Percent Growth,LOX IMVI; log10 conc −8.9,89%
same,TGI,M14,>0.0126 ng/mL
same,Percent Growth,M14; log10 conc −4.9,3%
same,Percent Growth,M14; log10 conc −5.9,87%
same,Percent Growth,M14; log10 conc −6.9,96%
same,Percent Growth,M14; log10 conc −7.9,105%
same,Percent Growth,M14; log10 conc −8.9,98%
same,TGI,UACC-257,>0.0126 ng/mL
same,Percent Growth,UACC-257; log10 conc −4.9,40%
same,Percent Growth,UACC-257; log10 conc −5.9,88%
same,Percent Growth,UACC-257; log10 conc −6.9,104%
same,Percent Growth,UACC-257; log10 conc −7.9,97%
same,Percent Growth,UACC-257; log10 conc −8.9,101%
same,TGI,SK-MEL-28,>0.0126 ng/mL
same,Percent Growth,SK-MEL-28; log10 conc −4.9,6%
same,Percent Growth,SK-MEL-28; log10 conc −5.9,94%
same,Percent Growth,SK-MEL-28; log10 conc −6.9,101%
same,Percent Growth,SK-MEL-28; log10 conc −7.9,103%
same,Percent Growth,SK-MEL-28; log10 conc −8.9,100%
same,TGI,SK-MEL-2,0.00881 ng/mL
same,Percent Growth,SK-MEL-2; log10 conc −4.9,−17%
same,Percent Growth,SK-MEL-2; log10 conc −5.9,91%
same,Percent Growth,SK-MEL-2; log10 conc −6.9,110%
same,Percent Growth,SK-MEL-2; log10 conc −7.9,103%
same,Percent Growth,SK-MEL-2; log10 conc −8.9,113%
same,TGI,UACC-62,>0.0126 ng/mL
same,Percent Growth,UACC-62; log10 conc −4.9,6%
same,Percent Growth,UACC-62; log10 conc −5.9,96%
same,Percent Growth,UACC-62; log10 conc −6.9,103%
same,Percent Growth,UACC-62; log10 conc −7.9,103%
same,Percent Growth,UACC-62; log10 conc −8.9,104%
same,TGI,MALME-3M,0.00602 ng/mL
same,Percent Growth,MALME-3M; log10 conc −4.9,−42%
same,Percent Growth,MALME-3M; log10 conc −5.9,90%
same,Percent Growth,MALME-3M; log10 conc −6.9,102%
same,Percent Growth,MALME-3M; log10 conc −7.9,123%
same,Percent Growth,MALME-3M; log10 conc −8.9,138%
same,TGI,SK-MEL-5,>0.0126 ng/mL
same,Percent Growth,SK-MEL-5; log10 conc −4.9,0%
same,Percent Growth,SK-MEL-5; log10 conc −5.9,78%
same,Percent Growth,SK-MEL-5; log10 conc −6.9,95%
same,Percent Growth,SK-MEL-5; log10 conc −7.9,97%
same,Percent Growth,SK-MEL-5; log10 conc −8.9,96%
